From EP0699675A2, “3-(4-(1-Substituted-4-piperazinyl)butyl)-4-thiazolidinone and related compounds” (HOECHST-ROUSSEL PHARMACEUTICALS INCORPORATED, priority 1994, dated 1996)
Counter-ions that a name gives are not always drawn.

Test system: CK-1 male mice
Assay: climbing mice assay (apomorphine-induced climbing), antipsychotic activity
Assay type: in vivo
Details: 30 minutes prior to apomorphine 1.5 mg/kg subcutaneously, climbing scores totaled over readings at 10, 20 and 30 minutes, control group set to 100%
Description: Antipsychotic activity is determined in the climbing mice assay by methods similar to those described by P. Protais, et al., Psychopharmacol., 50, 1 (1976) and B. Costall, Eur. J. Pharmacol., 50, 39 (1978).
The subject CK-1 male mice (23-27 grams) are group-housed under standard laboratory conditions. The mice are individually placed in wire mesh stick cages (4" x 4" by 10") and are allowed one hour for adaptation and exploration of the new environment. Then apomorphine is injected subcutaneously at 1.5 mg/kg, a dose causing climbing in all subjects for 30 minutes. Compounds to be tested for antipsychotic activity are injected intraperitoneally 30 minutes prior to the apomorphine challenge at a screening dose of 10mg/kg.
For evaluation of climbing, 3 readings are taken at 10,20 and 30 minutes after apomorphine administration according to the following scale:
Mice consistently climbing before the injection of apomorphine are discarded.
With full-developed apomporphine climbing, the animals are hanging onto the cage walls, rather motionless, over longer periods of time. By contrast, climbs due to mere motor stimulation usually last only a few seconds.
The climbing scores are individually totaled (maximum score: 6 per mouse over 3 readings) and the total score of the control group (vehicle intraperitoneally-apomorphine subcutaneously) is set to 100%. ED₅₀ value with 95% confidence limits, calculated by a linear regression analysis of some of the compounds of this invention.

| SMILES | Antipsychotic Activity Score (Dose 9.5 mg/kg ip) [%] | Antipsychotic Activity Score (Dose 20 mg/kg ip) [%] |
| --- | --- | --- |
| CC1SC(C)(C)C(=O)N1CCCCN1CCC(c2csc3ccccc23)CC1.O=C(O)/C=C\C(=O)O (stereo not drawn) [3-[4-[4-(Benzo[b]thien-3-yl)-1-piperidinyl]butyl]-2,5,5-trimethyl-4-thiazolidinone maleate] | 50 | – |
| CC1SC(C)(C)C(=O)N1CCCCN1CCC(c2cc3ccccc3s2)CC1 (stereo not drawn) [3-[4-[4-[Benzo[b]thien-2yl)-1-piperidinyl[butyl]-2,5,5-trimethyl-4-thiazolidinone hydrochloride] | – | 44 |
| CC1(C)C(=O)N(CCCCN2CCC(c3csc4ccccc34)CC2)CS1(=O)=O [3-[4-[4-[Benzo[b]thien-3-yl)-1-piperidinyl]butyl]-5,5-dimethyl-1,1-dioxo-4-thiazolidinone] | – | 98 |
